The source of these data is publication PMC11167047 (Cell Death Discovery, 2024).

The structures appear in SMILES notation.

What all share (test): kinome screen (33PanQinase)
Format in all cases: biochemical

The target of one experiment is T1, CDC7/DBF4 (Homo sapiens, UniProt O00311).
T1 construct: purchased Reaction Biology Europe GmbH (formerly ProQinase)
As to the method: (§1) The Kinome Screening was performed by Reaction Biology Europe GmbH (http://reactionbiology.com; Freiburg i. Br., Germany).

The target in a further experiment is T2, CDK2/CycE1 (Homo sapiens, UniProt P24941).
T2 construct: purchased Reaction Biology Europe GmbH (formerly ProQinase)
The method, then: as §1

A further experiment deals with T3, CK1γ1 (Homo sapiens, UniProt Q9HCP0).
T3 construct: purchased Reaction Biology Europe GmbH (formerly ProQinase)
The method, then:
as §1

The next experiment concerns the target T4, COT (Homo sapiens, UniProt P41279).
T4 construct: purchased Reaction Biology Europe GmbH (formerly ProQinase)
As to the method:
as §1

The target of another experiment is T5, EPHA1 (Homo sapiens, UniProt P21709).
T5 construct: purchased Reaction Biology Europe GmbH (formerly ProQinase)
T5 sequence (P21709 26-976): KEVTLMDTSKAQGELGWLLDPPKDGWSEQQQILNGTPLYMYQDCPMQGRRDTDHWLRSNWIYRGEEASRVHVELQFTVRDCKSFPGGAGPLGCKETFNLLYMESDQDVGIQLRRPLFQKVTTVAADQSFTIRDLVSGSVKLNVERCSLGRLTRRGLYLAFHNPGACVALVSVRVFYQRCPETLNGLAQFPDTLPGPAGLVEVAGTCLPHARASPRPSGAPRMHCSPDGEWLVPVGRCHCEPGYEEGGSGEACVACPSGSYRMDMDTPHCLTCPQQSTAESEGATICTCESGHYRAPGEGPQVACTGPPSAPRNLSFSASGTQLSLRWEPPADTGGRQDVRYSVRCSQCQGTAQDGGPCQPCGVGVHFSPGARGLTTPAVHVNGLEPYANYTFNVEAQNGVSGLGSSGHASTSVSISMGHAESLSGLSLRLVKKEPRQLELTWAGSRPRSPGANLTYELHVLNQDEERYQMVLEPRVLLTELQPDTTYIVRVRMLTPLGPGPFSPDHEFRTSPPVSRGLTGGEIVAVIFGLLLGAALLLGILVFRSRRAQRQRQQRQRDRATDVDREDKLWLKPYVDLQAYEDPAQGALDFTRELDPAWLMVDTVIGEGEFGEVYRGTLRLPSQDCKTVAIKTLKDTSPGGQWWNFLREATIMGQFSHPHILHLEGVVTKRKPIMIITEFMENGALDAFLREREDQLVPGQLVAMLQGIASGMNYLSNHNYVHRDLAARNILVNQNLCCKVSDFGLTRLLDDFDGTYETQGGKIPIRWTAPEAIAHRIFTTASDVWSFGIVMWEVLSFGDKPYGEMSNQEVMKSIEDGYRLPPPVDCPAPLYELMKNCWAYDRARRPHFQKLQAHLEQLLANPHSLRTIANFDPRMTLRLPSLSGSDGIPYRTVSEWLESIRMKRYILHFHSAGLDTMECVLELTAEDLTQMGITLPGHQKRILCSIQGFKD
The method, then:
as §1

A further experiment deals with T6, PRKG2 (Homo sapiens, UniProt Q13237).
T6 construct: purchased Reaction Biology Europe GmbH (formerly ProQinase)
T6 sequence (Q13237 1-762): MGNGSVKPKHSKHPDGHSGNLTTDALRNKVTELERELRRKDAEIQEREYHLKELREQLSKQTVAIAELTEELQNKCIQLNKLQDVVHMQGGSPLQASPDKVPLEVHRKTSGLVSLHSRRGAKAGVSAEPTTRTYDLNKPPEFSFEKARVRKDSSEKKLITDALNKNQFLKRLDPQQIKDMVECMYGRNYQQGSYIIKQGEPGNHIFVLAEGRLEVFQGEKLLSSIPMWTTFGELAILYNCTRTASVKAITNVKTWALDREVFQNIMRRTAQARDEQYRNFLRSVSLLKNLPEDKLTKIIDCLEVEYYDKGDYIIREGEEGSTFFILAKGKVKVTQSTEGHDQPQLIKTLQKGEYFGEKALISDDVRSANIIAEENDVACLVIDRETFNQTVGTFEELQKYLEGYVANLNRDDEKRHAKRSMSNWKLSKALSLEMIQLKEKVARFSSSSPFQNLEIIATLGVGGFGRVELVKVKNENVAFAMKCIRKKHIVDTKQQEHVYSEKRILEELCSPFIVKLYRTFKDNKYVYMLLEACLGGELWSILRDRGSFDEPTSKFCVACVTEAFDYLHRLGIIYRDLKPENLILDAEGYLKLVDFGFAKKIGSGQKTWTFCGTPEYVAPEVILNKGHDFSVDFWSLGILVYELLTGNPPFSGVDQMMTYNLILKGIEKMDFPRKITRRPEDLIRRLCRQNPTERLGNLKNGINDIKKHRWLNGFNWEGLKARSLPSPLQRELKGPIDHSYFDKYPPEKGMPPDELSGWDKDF
As to the method:
as §1

Another experiment concerns the target T7, SIK3 (Homo sapiens, UniProt Q9Y2K2).
T7 construct: purchased Reaction Biology Europe GmbH (formerly ProQinase)
The method, then:
as §1

The target in the next experiment is T8, TEC (Homo sapiens, UniProt P42680).
T8 construct: purchased Reaction Biology Europe GmbH (formerly ProQinase)
T8 sequence (P42680 1-631): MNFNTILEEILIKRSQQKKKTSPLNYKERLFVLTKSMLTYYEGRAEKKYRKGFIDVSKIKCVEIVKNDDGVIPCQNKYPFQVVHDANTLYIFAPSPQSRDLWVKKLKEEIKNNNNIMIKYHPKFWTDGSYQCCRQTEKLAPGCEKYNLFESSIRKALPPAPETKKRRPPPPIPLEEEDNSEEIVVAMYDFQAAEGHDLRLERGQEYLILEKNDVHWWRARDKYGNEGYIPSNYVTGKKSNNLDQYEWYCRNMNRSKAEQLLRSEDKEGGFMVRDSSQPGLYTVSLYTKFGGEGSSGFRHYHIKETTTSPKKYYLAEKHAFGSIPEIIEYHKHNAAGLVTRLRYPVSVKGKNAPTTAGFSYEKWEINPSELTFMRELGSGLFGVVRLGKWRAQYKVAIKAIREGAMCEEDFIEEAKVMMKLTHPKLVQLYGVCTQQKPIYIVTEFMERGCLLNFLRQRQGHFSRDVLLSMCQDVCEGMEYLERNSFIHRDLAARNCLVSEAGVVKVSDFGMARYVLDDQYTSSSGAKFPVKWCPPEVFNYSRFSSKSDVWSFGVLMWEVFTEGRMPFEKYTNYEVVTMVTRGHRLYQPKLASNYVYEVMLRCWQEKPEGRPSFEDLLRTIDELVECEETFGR
As to the method:
as §1

T7 sequence (Q9Y2K2 whole entry): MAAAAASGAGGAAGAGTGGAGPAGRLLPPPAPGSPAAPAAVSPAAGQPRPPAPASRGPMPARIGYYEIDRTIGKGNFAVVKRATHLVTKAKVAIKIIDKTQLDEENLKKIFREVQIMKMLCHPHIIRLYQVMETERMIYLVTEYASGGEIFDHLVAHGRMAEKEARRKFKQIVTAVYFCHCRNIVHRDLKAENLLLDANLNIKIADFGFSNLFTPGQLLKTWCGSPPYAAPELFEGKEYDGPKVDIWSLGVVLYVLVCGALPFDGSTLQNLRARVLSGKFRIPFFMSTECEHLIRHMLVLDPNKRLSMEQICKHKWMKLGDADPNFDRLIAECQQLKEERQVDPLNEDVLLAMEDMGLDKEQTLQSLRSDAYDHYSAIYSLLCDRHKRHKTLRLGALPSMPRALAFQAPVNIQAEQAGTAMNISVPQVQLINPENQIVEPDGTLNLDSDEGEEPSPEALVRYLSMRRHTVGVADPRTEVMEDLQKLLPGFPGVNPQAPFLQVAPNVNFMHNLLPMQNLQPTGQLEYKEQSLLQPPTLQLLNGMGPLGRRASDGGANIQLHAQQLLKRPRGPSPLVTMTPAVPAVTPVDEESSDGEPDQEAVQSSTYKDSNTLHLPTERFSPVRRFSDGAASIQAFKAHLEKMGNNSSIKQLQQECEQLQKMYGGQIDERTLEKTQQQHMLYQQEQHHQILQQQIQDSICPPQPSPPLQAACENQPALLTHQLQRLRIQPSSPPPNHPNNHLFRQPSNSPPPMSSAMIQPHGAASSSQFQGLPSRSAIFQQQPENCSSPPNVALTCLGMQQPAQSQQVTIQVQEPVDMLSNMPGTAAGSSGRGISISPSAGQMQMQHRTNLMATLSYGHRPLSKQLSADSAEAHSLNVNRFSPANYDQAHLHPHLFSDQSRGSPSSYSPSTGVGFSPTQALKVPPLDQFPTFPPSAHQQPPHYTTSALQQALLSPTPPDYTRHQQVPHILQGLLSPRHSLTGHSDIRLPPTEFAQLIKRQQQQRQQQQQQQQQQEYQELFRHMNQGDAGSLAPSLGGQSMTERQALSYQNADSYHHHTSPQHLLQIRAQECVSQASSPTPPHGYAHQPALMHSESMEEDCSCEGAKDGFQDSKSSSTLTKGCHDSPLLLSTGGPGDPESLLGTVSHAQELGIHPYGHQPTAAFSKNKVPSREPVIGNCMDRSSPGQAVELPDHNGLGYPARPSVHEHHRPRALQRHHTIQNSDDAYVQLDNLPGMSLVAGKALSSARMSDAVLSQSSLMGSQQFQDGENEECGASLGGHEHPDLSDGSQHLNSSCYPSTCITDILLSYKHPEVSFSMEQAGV
T3 sequence (Q9HCP0 whole entry): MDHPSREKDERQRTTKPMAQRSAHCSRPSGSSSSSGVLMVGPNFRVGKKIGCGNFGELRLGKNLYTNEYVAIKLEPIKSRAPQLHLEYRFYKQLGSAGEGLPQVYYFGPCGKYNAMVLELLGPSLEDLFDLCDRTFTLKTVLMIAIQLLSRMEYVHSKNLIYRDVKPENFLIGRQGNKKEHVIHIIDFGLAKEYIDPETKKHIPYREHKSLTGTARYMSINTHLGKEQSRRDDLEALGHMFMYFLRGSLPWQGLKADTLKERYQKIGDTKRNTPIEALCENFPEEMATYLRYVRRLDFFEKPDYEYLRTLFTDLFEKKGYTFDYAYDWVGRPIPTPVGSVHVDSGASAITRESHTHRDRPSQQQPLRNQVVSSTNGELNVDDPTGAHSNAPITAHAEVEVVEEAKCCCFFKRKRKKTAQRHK
T1 sequence (O00311 whole entry): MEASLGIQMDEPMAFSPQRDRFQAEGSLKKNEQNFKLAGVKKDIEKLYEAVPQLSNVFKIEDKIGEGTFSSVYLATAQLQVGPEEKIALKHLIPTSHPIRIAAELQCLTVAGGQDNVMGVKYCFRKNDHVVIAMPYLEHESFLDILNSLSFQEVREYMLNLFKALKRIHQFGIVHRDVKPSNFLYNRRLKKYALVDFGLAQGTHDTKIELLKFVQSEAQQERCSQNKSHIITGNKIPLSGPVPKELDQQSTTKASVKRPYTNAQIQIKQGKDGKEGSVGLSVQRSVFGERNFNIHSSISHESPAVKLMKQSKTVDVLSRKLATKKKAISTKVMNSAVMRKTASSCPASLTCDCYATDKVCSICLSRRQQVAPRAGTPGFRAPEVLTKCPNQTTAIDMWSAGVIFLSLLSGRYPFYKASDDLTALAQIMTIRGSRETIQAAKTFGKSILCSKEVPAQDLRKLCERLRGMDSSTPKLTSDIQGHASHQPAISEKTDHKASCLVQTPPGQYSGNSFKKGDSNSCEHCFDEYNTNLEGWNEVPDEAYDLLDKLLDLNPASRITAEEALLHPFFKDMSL
T1 sequence (Q9UBU7 whole entry partner): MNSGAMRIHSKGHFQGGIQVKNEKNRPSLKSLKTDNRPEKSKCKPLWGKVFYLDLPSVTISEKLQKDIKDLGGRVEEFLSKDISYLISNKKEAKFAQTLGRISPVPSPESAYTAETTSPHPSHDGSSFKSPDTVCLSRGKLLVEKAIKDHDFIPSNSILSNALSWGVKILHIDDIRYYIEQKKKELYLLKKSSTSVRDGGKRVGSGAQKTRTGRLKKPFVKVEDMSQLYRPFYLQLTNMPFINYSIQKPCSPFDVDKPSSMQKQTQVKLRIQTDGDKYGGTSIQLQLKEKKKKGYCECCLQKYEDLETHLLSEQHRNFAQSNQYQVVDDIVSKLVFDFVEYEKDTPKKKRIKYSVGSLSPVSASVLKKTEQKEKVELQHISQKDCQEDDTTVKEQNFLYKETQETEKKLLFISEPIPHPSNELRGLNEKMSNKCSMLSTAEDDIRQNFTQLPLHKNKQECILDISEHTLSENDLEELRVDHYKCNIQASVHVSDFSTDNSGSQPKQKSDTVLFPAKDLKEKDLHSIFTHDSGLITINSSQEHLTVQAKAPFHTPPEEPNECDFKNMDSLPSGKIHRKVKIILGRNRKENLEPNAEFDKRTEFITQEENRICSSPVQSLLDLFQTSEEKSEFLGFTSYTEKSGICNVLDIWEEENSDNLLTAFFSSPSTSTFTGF
T4 sequence (P41279 whole entry): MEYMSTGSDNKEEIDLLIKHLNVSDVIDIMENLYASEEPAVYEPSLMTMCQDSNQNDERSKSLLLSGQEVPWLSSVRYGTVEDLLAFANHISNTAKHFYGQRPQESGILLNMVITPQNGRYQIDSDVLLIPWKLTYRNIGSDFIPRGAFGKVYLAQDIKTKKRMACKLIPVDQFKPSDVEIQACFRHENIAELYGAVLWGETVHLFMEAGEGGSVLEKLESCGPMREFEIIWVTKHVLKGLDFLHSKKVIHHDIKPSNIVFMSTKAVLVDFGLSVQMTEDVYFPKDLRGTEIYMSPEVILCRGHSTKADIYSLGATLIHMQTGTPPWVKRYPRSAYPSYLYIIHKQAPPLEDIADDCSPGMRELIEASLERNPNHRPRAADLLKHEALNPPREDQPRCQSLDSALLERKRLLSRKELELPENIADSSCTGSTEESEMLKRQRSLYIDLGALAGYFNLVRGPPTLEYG

With `COc1ccnc2[nH]cc(-c3cc(N)nc(N)c3)c12` [meriolin 16], the residual kinase activity on CDC7/DBF4 (0.03 µM) is on record as 63 % of control; on CDC7/DBF4 (0.3 µM), 12 % of control; on CDK2/CycE1 (0.03 µM) it was 16 % of control; at CDK2/CycE1 (0.3 µM) it was 0 % of control; on CK1γ1 (0.03 µM), 87 % of control; at CK1γ1 (0.3 µM), 38 % of control. In addition, the residual kinase activity at COT (0.03 µM) is 104 % of control; on COT (0.3 µM) it was 86 % of control; at EPHA1 (0.03 µM) it was 128 % of control; at EPHA1 (0.3 µM) it was 116 % of control; at PRKG2 (0.03 µM), 48 % of control; on PRKG2 (0.3 µM) it was 7 % of control. For the same compound, the residual kinase activity at SIK3 (0.03 µM) is 106 % of control; at SIK3 (0.3 µM), 88 % of control; at TEC (0.03 µM) it was 110 % of control; at TEC (0.3 µM) it was 101 % of control.
Regarding `c1ccc(CNc2cc(-c3c[nH]c4ncccc34)ccn2)cc1` [meriolin 36], the residual kinase activity at CDC7/DBF4 (0.3 µM) is listed as 10 % of control; on CDC7/DBF4 (3 µM), 2 % of control; on CDK2/CycE1 (0.3 µM) it was 1 % of control; on CDK2/CycE1 (3 µM) it was 1 % of control; on CK1γ1 (0.3 µM) it was 23 % of control; at CK1γ1 (3 µM), 3 % of control. For the same compound, the residual kinase activity is 85 % of control on COT (0.3 µM); 92 % of control at COT (3 µM); 127 % of control at EPHA1 (0.3 µM); 126 % of control on EPHA1 (3 µM); 14 % of control on PRKG2 (0.3 µM); 2 % of control at PRKG2 (3 µM). The residual kinase activity on SIK3 (0.3 µM) was 72 % of control; at SIK3 (3 µM), 32 % of control; at TEC (0.3 µM) it was 114 % of control; at TEC (3 µM), 96 % of control.
